Experimental findings from patent US8093274B2, “Inhibitors of protein prenyltransferases” (The Regents of the University of California, priority 2006, dated 2012) are described below.

Test [1] has as its target GGTase I (substrate K-Ras4B) (Homo sapiens, UniProt P49354+P53609). Briefly: GGTase I filter-binding assay with K-Ras4B as substrate. The format is biochemical. The settings on record: 50 μM compound; DMSO = 100%; smaller numbers indicate better inhibition; first number of pair; read-out: % activity of GGTase I for protein K-Ras4B in the presence of the compound. The method, then: (§1) The pilot library was screened for inhibitors of protein geranylgeranyltransferase type I. Protein prenyltransferase assays were carried out by using filter binding. Two different substrates, RhoA and K-Ras4B, were used for the assay. RhoA ends with the CaaL motif and is an exclusive substrate for GGTase I, while K-Ras4B ends with the CaaX motif and is modified by both GGTase I and FTase.
(§2) The % activity of GGTase I was determined as follows: a working solution that contained each compound in DMSO at the concentration of 1 mM was prepared. The working solution was added to GGTase I reaction mixture so that the final concentration of the compound is 50 μM. GGTase I activity was assayed by incubating [^3H]GGPP with K-Ras4B or RhoA protein in the presence of GGTase I and examining radioactivity incorporated into the substrate protein by spotting onto a filter paper. After washing with TCA, ethanol and acetone, the radioactivity retained on the filter was determined by the use of a scintillation counter. GGTase I activity in the presence of DMSO was taken as a 100% value and the activity in the presence of the compound was shown as percent activity compared with the 100% value. […] For 6-aryl-4-mercapto-N-sulfonyl-piperidine-3-carboxylic acid 11 the 4-mercapto substituent appeared critical to endowing GGTase inhibitory activity. […] 4-Chlorobenzylthio substituent was the next best; 12 compounds out of 21 containing the 4-chlorobenzylthio moiety were active. 4-Benzylthio substituent was also good; 7 piperidines out of 21 bearing 4-benzylthio group were active. […] 19 imines (C15>C12=C41>C40>C01=C11>C05=C10=C30=C35=C37=C38>C02, C03, C04, C06, C39=C43) out of 21 appeared in the GGTIs. […] This corresponds to 47 6-aryl-4-mercapto-N-sulfonyl-piperidine-3-carboxylic acids out of 357 compounds.
(§3) A collection of 138 heterocycles was screened for their ability to inhibit the activity of human GGTase-I to geranylgeranylate K-Ras4B or RhoA. Purified GGTase-1 was incubated with its substrate protein K-Ras4B or RhoA, [^3H]GGPP, and the 138 compounds. After 30 min, the degree of incorporation of tritiated geranylgeranyl groups was measured using a scintillation counter.

The target of test [2] is GGTase I (substrate RhoA) (Homo sapiens, UniProt P49354+P53609). Briefly: GGTase I filter-binding assay with RhoA as substrate. To be noted: 50 μM compound; DMSO = 100%; smaller numbers indicate better inhibition; second number of pair; read-out: % activity of GGTase I for protein RhoA in the presence of the compound. The format is biochemical. The method, then:
as §1, §2, §3
The GGTase-I assay was carried out using RhoA as a substrate protein, GGTase-I (JENA Bioscience) and [3H]geranylgeranyl pyrophosphate. Incubation was for 30 min at 37 C. GGTase-H (or RabGGTase) assay was carried out using YPT1 as a substrate protein, GGTase-H (Calbiochem, San Diego, Calif.) plus REP1 (Calbiochem) and [3H]geranylgeranyl pyrophosphate. Incubation was for 30 min at 37 C. FIGS. 20D-20F show the three dimensional structure of GGTase I (D), FTsse (E) and GGTase II (F) which can be obtained from X-ray diffraction studies of protein crystals.

As to `COc1ccc([C@H]2C(C(=O)O)=C[C@@H](C(C)(C)C)N2S(=O)(=O)c2ccc(C)cc2)cc1OC`, the activity at 50 µM in test [1] came out at 23.4%; in test [2], 6.1%.
The matching figures for `Cc1ccccc1S(=O)(=O)N1C(c2ccc(Cl)cc2)CC=C(C(=O)O)[C@@H]1c1cccc(Br)c1` (stereo partly drawn): 10.6% and 8.8%.
The matching figures for `Cc1cccc([C@H]2C(C(=O)O)=CCC(c3ccc(Cl)cc3)N2S(=O)(=O)c2ccccc2C)c1` (stereo partly drawn): 15.6% and 12.4%.
As for `Cc1ccc(S(=O)(=O)N2C(c3ccc(Cl)c(Cl)c3)CC=C(C(=O)O)[C@@H]2c2cccc(C)c2)cc1` (stereo partly drawn), the activity at 50 µM in test [1] stood at 12.6%; in test [2] it was 10.3%.
Take `Cc1ccccc1S(=O)(=O)N1C(c2ccc(Cl)cc2)CC=C(C(=O)O)[C@@H]1c1cccc(F)c1` (stereo partly drawn): the activity at 50 µM in test [1] was 5.4%; in test [2], 3%.
Taken in the same sequence, the figures for `Cc1ccccc1S(=O)(=O)N1C(c2ccc(Cl)cc2)CC=C(C(=O)O)[C@@H]1c1ccccc1F` (stereo partly drawn) were 8.4% and 4.1%.
For `Cc1ccccc1S(=O)(=O)N1C(c2ccc(Cl)cc2)CC=C(C(=O)O)[C@@H]1c1ccc(F)cc1` (stereo partly drawn), the activity at 50 µM in test [1] came to 15.6%; in test [2], 12.6%.
Taken in the same sequence, the figures for `Cc1ccc(S(=O)(=O)N2C(c3ccc(Cl)c(Cl)c3)CC=C(C(=O)O)[C@@H]2c2ccc(Cl)cc2)cc1` (stereo partly drawn) were 17.7% and 12.1%.
The matching figures for `Cc1ccc([C@H]2C(C(=O)O)=CCC(c3ccc(Cl)c(Cl)c3)N2S(=O)(=O)c2ccc(C)cc2)cc1` (stereo partly drawn): 12.4% and 15.6%.
For `Cc1ccc(S(=O)(=O)N2C(c3cccc(Br)c3)CC=C(C(=O)O)[C@@H]2c2cccc(Br)c2)cc1` (stereo partly drawn), the activity at 50 µM came to 9.4% in test [1] and 3.7% in test [2].
The matching figures for `Cc1ccc(S(=O)(=O)N2C(c3cccc(Cl)c3)CC=C(C(=O)O)[C@@H]2c2cccc(Br)c2)cc1` (stereo partly drawn): 11% and 7%.
The matching figures for `Cc1ccc(S(=O)(=O)N2C(c3cccc(Br)c3)CC=C(C(=O)O)[C@@H]2c2cccc(Cl)c2)cc1` (stereo partly drawn): 9.8% and 7.9%.
In the case of `Cc1ccc(S(=O)(=O)N2C(c3cccc(Cl)c3)CC=C(C(=O)O)[C@@H]2c2cccc(Cl)c2)cc1` (stereo partly drawn), the activity at 50 µM worked out at 43.7% in test [1] and 6% in test [2].
The matching figures for `Cc1ccc(S(=O)(=O)N2C(c3cccc(Br)c3)CC=C(C(=O)O)[C@@H]2c2cccc(C)c2)cc1` (stereo partly drawn): 16.1% and 14.3%.
Taken in the same sequence, the figures for `Cc1ccc(S(=O)(=O)N2C(c3cccc(Br)c3)CC=C(C(=O)O)[C@@H]2c2cccc(F)c2)cc1` (stereo partly drawn) were 17% and 15%.
On to `Cc1ccc(S(=O)(=O)N2C(c3cccc(Br)c3)CC=C(C(=O)O)[C@@H]2c2ccccc2)cc1` (stereo partly drawn), for which the values for the activity at 50 µM in test [1] and in test [2] were 35.2% and 19.4%, respectively.
As to `O=C(O)C1=CCC(c2ccc(Cl)cc2)N(S(=O)(=O)c2ccc(Cl)cc2)[C@H]1c1cccc(Br)c1` (stereo partly drawn), the activity at 50 µM in test [1] was found to be 8.6%; in test [2] it was 5%.
As for `Cc1ccc(C2CC=C(C(=O)O)[C@H](c3cccc(Br)c3)N2S(=O)(=O)c2ccc(Cl)cc2)cc1` (stereo partly drawn), the activity at 50 µM worked out at 8.4% in test [1] and 7.4% in test [2].
The matching figures for `C=CCS[C@H]1[C@@H](C(=O)O)[C@H](c2ccc(Cl)c(Cl)c2)N(S(=O)(=O)c2ccc(C)cc2)[C@@H]1CCCC`: 21.4% and 9.6%.
Taken in the same sequence, the figures for `CC[C@@H]1[C@@H](SCCC(=O)OC(C)(C)C)[C@@H](C(=O)O)[C@H](c2ccc(Cl)c(Cl)c2)N1S(=O)(=O)c1ccc(C)cc1` were 27.2% and 7.6%.
Taken in the same sequence, the figures for `CCC[C@@H]1[C@@H](Sc2ccc(OC)cc2)[C@@H](C(=O)O)[C@H](c2ccc(Cl)c(Cl)c2)N1S(=O)(=O)c1ccc(C)cc1` were 10.9% and 1.1%.
As to `C=CCS[C@H]1[C@@H](C(=O)O)[C@H](c2ccc(Cl)c(Cl)c2)N(S(=O)(=O)c2ccc(C)cc2)[C@@H]1CCCCCC`, the figures for the activity at 50 µM in test [1] and in test [2] were 15.1% and 6.8%, respectively.
The matching figures for `Cc1ccc(S(=O)(=O)N2[C@H](CC3CCCC3)[C@@H](SCCC(=O)OC(C)(C)C)[C@@H](C(=O)O)[C@@H]2c2ccc(Cl)c(Cl)c2)cc1`: 16.1% and 7.3%.
For the compound `C=CCS[C@H]1[C@@H](C(=O)O)[C@H](c2ccc(Cl)c(Cl)c2)N(S(=O)(=O)c2ccc(C)cc2)[C@@H]1CC1CCCC1`, the activity at 50 µM worked out at 12.1% in test [1] and 8.6% in test [2].
On to `C=CCS[C@H]1[C@@H](C(=O)O)[C@H](c2ccc(Cl)cc2)N(S(=O)(=O)c2ccccc2C)[C@@H]1CCC`, for which the results for the activity at 50 µM in test [1] and in test [2] were 28.4% and 8.9%, respectively.
Taken in the same sequence, the figures for `Cc1ccccc1S(=O)(=O)N1[C@H](CC2CCCC2)[C@@H](SCCC(=O)OC(C)(C)C)[C@@H](C(=O)O)[C@@H]1c1ccc(Cl)cc1` were 10% and 7.8%.
Taken in the same sequence, the figures for `C=CCS[C@H]1[C@@H](C(=O)O)[C@H](c2ccc(Cl)cc2)N(S(=O)(=O)c2ccccc2C)[C@@H]1CCCC` were 23.1% and 8.4%.
The matching figures for `C=CCS[C@H]1[C@@H](C(=O)O)[C@H](c2ccc(Cl)cc2)N(S(=O)(=O)c2ccccc2C)[C@@H]1CCCCCC`: 24.9% and 6%.
Consider `C=CCS[C@H]1[C@@H](C(=O)O)[C@H](c2ccc(Cl)cc2)N(S(=O)(=O)c2ccccc2C)[C@@H]1CC1CCCC1`, for which the activity at 50 µM came out at 22.4% in test [1] and 4.9% in test [2].
Taken in the same sequence, the figures for `CCC[C@@H]1[C@@H](SCCC(=O)OC(C)(C)C)[C@@H](C(=O)O)[C@H](c2ccc(Cl)cc2)N1S(=O)(=O)c1ccc(Cl)cc1` were 21.7% and 9.2%.
The matching figures for `COc1ccc(S[C@H]2[C@@H](C(=O)O)[C@H](c3ccc(Cl)cc3)N(S(=O)(=O)c3ccc(Cl)cc3)[C@@H]2C(C)C)cc1`: 48.7% and 8%.
On to `CC(C)(C)OC(=O)CCS[C@H]1[C@@H](C(=O)O)[C@H](c2ccc(Cl)cc2)N(S(=O)(=O)c2ccc(Cl)cc2)[C@@H]1CC1CCCC1`, for which the activity at 50 µM in test [1] worked out at 22.5%; in test [2], 9.8%.
As to `CC(C)(C)OC(=O)CCS[C@H]1[C@@H](C(=O)O)[C@H](c2ccc(Cl)cc2)N(S(=O)(=O)c2ccccc2)[C@@H]1CC1CCCC1`, the activity at 50 µM worked out at 30.4% in test [1] and 9.7% in test [2].
Taken in the same sequence, the figures for `C=CCS[C@H]1[C@@H](C(=O)O)[C@H](c2ccc(C#N)cc2)N(S(=O)(=O)c2ccc(C)cc2)[C@@H]1C(C)C` were 23.1% and 9.3%.
Taken in the same sequence, the figures for `C=CCS[C@H]1[C@@H](C(=O)O)[C@H](c2ccc(C#N)cc2)N(S(=O)(=O)c2ccc(C)cc2)[C@@H]1CCCCCC` were 21.5% and 6%.
Taken in the same sequence, the figures for `C=CCS[C@H]1[C@@H](C(=O)O)[C@H](c2ccc(Br)cc2)N(S(=O)(=O)c2ccc(C)cc2)[C@@H]1CCC` were 9.8% and 7.5%.
As for `C=CCS[C@H]1[C@@H](C(=O)O)[C@H](c2ccc(Br)cc2)N(S(=O)(=O)c2ccc(C)cc2)[C@@H]1CCCCCC`, the results for the activity at 50 µM in test [1] and in test [2] were 15.5% and 5.5%, respectively.
The matching figures for `Cc1ccc(S(=O)(=O)N2[C@H](CC3CCCC3)[C@@H](SCCC(=O)OC(C)(C)C)[C@@H](C(=O)O)[C@@H]2c2cccc(Cl)c2)cc1`: 20.6% and 5.6%.
As to `CC[C@@H]1[C@@H](Sc2ccc(OC)cc2)[C@@H](C(=O)O)[C@H](c2cccc(Cl)c2)N1S(=O)(=O)c1ccc(C)cc1`, the activity at 50 µM in test [1] was 25.5%; in test [2], 6.5%.
